Data taken from patent US20240043427A1 (Gilead Sciences, Inc., priority 2020, published 2024).

What was measured:
[1] = target: T1, CD73 (Homo sapiens (Human), UniProt P21589); type: biochemical; details: 1 mM NaH2PO4 in enzyme buffer, CD73 0.3 nM, AMP 15 uM
[2] = target: T1, CD73; assay: MDA-MB-231 Cell Based CD73 Activity Assay (DMEM); details: MDA-MB-231-GFP cells, DMEM medium with 10% human plasma, 200 uM AMP

T1 sequence (P21589 27-574): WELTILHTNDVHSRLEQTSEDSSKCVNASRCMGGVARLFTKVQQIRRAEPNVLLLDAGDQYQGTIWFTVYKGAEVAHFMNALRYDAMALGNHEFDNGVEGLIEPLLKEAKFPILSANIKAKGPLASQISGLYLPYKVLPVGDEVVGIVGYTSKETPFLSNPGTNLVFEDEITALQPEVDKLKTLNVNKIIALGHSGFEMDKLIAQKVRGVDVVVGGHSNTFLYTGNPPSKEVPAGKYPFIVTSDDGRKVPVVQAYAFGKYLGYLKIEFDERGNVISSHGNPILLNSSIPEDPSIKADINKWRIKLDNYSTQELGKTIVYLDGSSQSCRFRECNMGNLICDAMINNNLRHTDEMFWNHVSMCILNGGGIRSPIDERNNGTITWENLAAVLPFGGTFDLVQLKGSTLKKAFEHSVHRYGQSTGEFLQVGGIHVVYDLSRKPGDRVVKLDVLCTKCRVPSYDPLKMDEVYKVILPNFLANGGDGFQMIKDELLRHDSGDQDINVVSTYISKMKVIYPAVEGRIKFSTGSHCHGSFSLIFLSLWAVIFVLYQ

**Q.** For `O=c1[nH]cc(-c2cc(N3CC4(C3)CC(F)(F)CO4)c3nccn3n2)c(=O)[nH]1` [Example 449, 5-(8-(7,7-difluoro-5-oxa-2-azaspiro[3.4]octan-2-yl)imidazo[1,2-b]pyridazin-6-yl)pyrimidine-2,4(1H,3H)-dione], which IC50 [1] is on record?
**A.** Its IC50 is 132 nM.

**Q.** What about the EC50 [2] of the same compound?
**A.** Its EC50 is 473 nM.

**Q.** How did the IC50 [1] turn out when `O=c1[nH]cc(-c2cc(N3C[C@H](Oc4ccc(OC(F)F)cn4)C(F)(F)C3)c3nccn3n2)c(=O)[nH]1` [Example 333, (S)-5-(8-(4-((5-(difluoromethoxy)pyridin-2-yl)oxy)-3,3-difluoropyrrolidin-1-yl)imidazo[1,2-b]pyridazin-6-yl)pyrimidine-2,4(1H,3H)-dione] was run?
**A.** Its IC50 is 0.89 nM.

**Q.** And the EC50 [2]?
**A.** Its EC50 is 1.91 nM.

**Q.** For `COC1(C(F)(F)F)CCN(c2cc(-c3c[nH]c(=O)[nH]c3=O)nn3ccnc23)C1` (stereo not shown) [Example 189, 5-[8-[3-methoxy-3-(trifluoromethyl)pyrrolidin-1-yl]imidazo[1,2-b]pyridazin-6-yl]-1H-pyrimidine-2,4-dione], which IC50 [1] is on record?
**A.** The IC50 was 18.1 nM.

**Q.** What about the EC50 [2] of the same compound?
**A.** Its EC50 is 49 nM.

**Q.** How did the IC50 [1] turn out when `O=c1[nH]cc(-c2cc([C@H]3C[C@@H]3c3ccc4cnn(CC(F)(F)F)c4n3)c3ncc(F)n3n2)c(=O)[nH]1` [Example 610, 5-(3-fluoro-8-((1S,2S)-2-(1-(2,2,2-trifluoroethyl)-1H-pyrazolo[3,4-b]pyridin-6-yl)cyclopropyl)imidazo[1,2-b]pyridazin-6-yl)pyrimidine-2,4(1H,3H)-dione] was run?
**A.** Its IC50 is 0.37 nM.

**Q.** And the EC50 [2]?
**A.** The EC50 was 0.23 nM.

**Q.** Which results are given for `O=c1[nH]cc(-c2cc(N3CC[C@@H](OC(F)(F)F)C3)c3ncnn3n2)c(=O)[nH]1` [Example 429, (R)-5-(8-(3-(trifluoromethoxy)pyrrolidin-1-yl)-[1,2,4]triazolo[1,5-b]pyridazin-6-yl)pyrimidine-2,4(1H,3H)-dione]?
**A.** IC50 [1]: 2.22 nM; EC50 [2]: 8.89 nM

**Q.** What does the source list for `O=c1[nH]cc(-c2cc(N3CC[C@@H](Oc4ccc(F)cc4)C3)c3nccn3n2)c(=O)[nH]1` [Example 240, (R)-5-(8-(3-(4-fluorophenoxy)pyrrolidin-1-yl)imidazo[1,2-b]pyridazin-6-yl)pyrimidine-2,4(1H,3H)-dione]?
**A.** IC50 [1]: 0.28 nM; EC50 [2]: 3.79 nM

**Q.** Which IC50 [1] does the source give for `O=c1[nH]cc(-c2cc([C@H]3C[C@@H]3c3ccc(OC(F)F)cc3)c3nccn3n2)c(=O)[nH]1` (racemic) [Example 556, 5-(8-((1S,2S)-2-(4-(difluoromethoxy)phenyl)cyclopropyl)imidazo[1,2-b]pyridazin-6-yl)pyrimidine-2,4(1H,3H)-dione] here?
**A.** Its IC50 is 3.41 nM.

**Q.** What about the EC50 [2] of the same compound?
**A.** The EC50 was 14 nM.

**Q.** Which IC50 [1] does the source give for `COCCn1cc(-c2cc(-c3c[nH]c(=O)[nH]c3=O)nn3ccnc23)cn1` [Example 510, 5-(8-(1-(2-methoxyethyl)-1H-pyrazol-4-yl)imidazo[1,2-b]pyridazin-6-yl)pyrimidine-2,4(1H,3H)-dione] here?
**A.** Its IC50 is 246 nM.

**Q.** And the EC50 [2]?
**A.** Its EC50 is 382 nM.

**Q.** Which IC50 [1] does the source give for `CC(C)(COc1cc(-c2c[nH]c(=O)[nH]c2=O)nn2ccnc12)C(F)(F)F` [Example 676, 5-(8-(3,3,3-trifluoro-2,2-dimethylpropoxy)imidazo[1,2-b]pyridazin-6-yl)pyrimidine-2,4(1H,3H)-dione] here?
**A.** The IC50 was 141 nM.

**Q.** What about the EC50 [2] of the same compound?
**A.** Its EC50 is 429 nM.

**Q.** Which IC50 [1] does the source give for `O=c1[nH]cc(-c2cc([C@H]3C[C@@H]3c3cc4c(cn3)cnn4CC(F)(F)F)c3nccn3n2)c(=O)[nH]1` [Example 636, 5-(8-((1S,2S)-2-(1-(2,2,2-trifluoroethyl)-1H-pyrazolo[4,3-c]pyridin-6-yl)cyclopropyl)imidazo[1,2-b]pyridazin-6-yl)pyrimidine-2,4(1H,3H)-dione] here?
**A.** Its IC50 is 0.34 nM.

**Q.** And the EC50 [2]?
**A.** Its EC50 is 0.13 nM.

**Q.** `COc1ccc(C2CCN(c3cc(-c4c[nH]c(=O)[nH]c4=O)nn4ccnc34)C2)cc1` (stereo not shown) [Example 173, 5-(8-(3-(4-methoxyphenyl)pyrrolidin-1-yl)imidazo[1,2-b]pyridazin-6-yl)pyrimidine-2,4(1H,3H)-dione] was tested. Which IC50 [1] did it give?
**A.** The IC50 was 3.59 nM.

**Q.** And the EC50 [2]?
**A.** The EC50 was 88.2 nM.

**Q.** With `O=c1[nH]cc(-c2cc(N3CC(Oc4ccc(C(F)(F)F)cn4)C(F)(F)C3)c3nccn3n2)c(=O)[nH]1` (stereo not shown) [Example 523, 5-(8-(3,3-difluoro-4-((5-(trifluoromethyl)pyridin-2-yl)oxy)pyrrolidin-1-yl)imidazo[1,2-b]pyridazin-6-yl)pyrimidine-2,4(1H,3H)-dione] as the compound, how does the IC50 [1] read?
**A.** Its IC50 is 1.92 nM.

**Q.** What about the EC50 [2] of the same compound?
**A.** The EC50 was 3.96 nM.

**Q.** Which results are given for `O=c1[nH]cc(-c2cc(N3CC(CC(F)F)C3)c3nccn3n2)c(=O)[nH]1` [Example 443, 5-(8-(3-(2,2-difluoroethyl)azetidin-1-yl)imidazo[1,2-b]pyridazin-6-yl)pyrimidine-2,4(1H,3H)-dione]?
**A.** IC50 [1]: 157 nM; EC50 [2]: 188 nM

**Q.** What does the source list for `COC1CN(c2cc(-c3c[nH]c(=O)[nH]c3=O)nn3ccnc23)CC12CC2` (stereo not shown) [Example 349, 5-(8-(7-methoxy-5-azaspiro[2.4]heptan-5-yl)imidazo[1,2-b]pyridazin-6-yl)pyrimidine-2,4(1H,3H)-dione]?
**A.** IC50 [1]: 148 nM; EC50 [2]: 124 nM

**Q.** How did the IC50 [1] turn out when `CC1(C(F)(F)F)CCN(c2cc(-c3c[nH]c(=O)[nH]c3=O)nn3ccnc23)C1` (stereo not shown) [Example 185, 5-[8-[3-methyl-3-(trifluoromethyl)pyrrolidin-1-yl]imidazo[1,2-b]pyridazin-6-yl]-1H-pyrimidine-2,4-dione] was run?
**A.** Its IC50 is 13.5 nM.

**Q.** And the EC50 [2]?
**A.** Its EC50 is 57.4 nM.

**Q.** Which results are given for `O=c1[nH]cc(-c2cc([C@H]3C[C@@H]3c3ccc(C(F)(F)F)nc3)c3nccn3n2)c(=O)[nH]1` [Example 153, 5-(8-((1S,2S)-2-(6-(trifluoromethyl)pyridin-3-yl)cyclopropyl)imidazo[1,2-b]pyridazin-6-yl)pyrimidine-2,4(1H,3H)-dione]?
**A.** IC50 [1]: 2.3 nM; EC50 [2]: 8.85 nM

**Q.** Which IC50 [1] does the source give for `O=C(Nc1ccccc1F)OC1CN(c2cc(-c3c[nH]c(=O)[nH]c3=O)nn3ccnc23)CC1(F)F` (stereo not shown) [Example 233, 1-(6-(2,4-dioxo-1,2,3,4-tetrahydropyrimidin-5-yl)imidazo[1,2-b]pyridazin-8-yl)-4,4-difluoropyrrolidin-3-yl (2-fluorophenyl)carbamate] here?
**A.** The IC50 was 1.17 nM.

**Q.** What about the EC50 [2] of the same compound?
**A.** The EC50 was 0.8 nM.

**Q.** `O=c1[nH]cc(-c2cc([C@H]3C[C@@H]3c3ccc(C(F)(F)F)cc3)c3nccn3n2)c(=O)[nH]1` [Example 554, 5-(8-((1S,2S)-2-(4-(trifluoromethyl)phenyl)cyclopropyl)imidazo[1,2-b]pyridazin-6-yl)pyrimidine-2,4(1H,3H)-dione] was tested. Which IC50 [1] did it give?
**A.** Its IC50 is 1.57 nM.

**Q.** What about the EC50 [2] of the same compound?
**A.** The EC50 was 12 nM.

**Q.** For `CCc1cnn2c(N3CC(C)(C)C(F)(F)C3)cc(-c3c[nH]c(=O)[nH]c3=O)nc12` [Example 217, 5-(7-(3,3-difluoro-4,4-dimethylpyrrolidin-1-yl)-3-ethylpyrazolo[1,5-a]pyrimidin-5-yl)pyrimidine-2,4(1H,3H)-dione], which IC50 [1] is on record?
**A.** Its IC50 is 111 nM.

**Q.** What about the EC50 [2] of the same compound?
**A.** Its EC50 is 584 nM.

**Q.** How did the IC50 [1] turn out when `O=C(Nc1ccccc1F)OCC(F)(F)COc1cc(-c2c[nH]c(=O)[nH]c2=O)nn2ccnc12` [Example 234, 3-((6-(2,4-dioxo-1,2,3,4-tetrahydropyrimidin-5-yl)imidazo[1,2-b]pyridazin-8-yl)oxy)-2,2-difluoropropyl (2-fluorophenyl)carbamate] was run?
**A.** The IC50 was 0.62 nM.

**Q.** And the EC50 [2]?
**A.** The EC50 was 6.56 nM.

**Q.** With `O=c1[nH]cc(-c2cc(N3CC(F)(F)C(F)(F)C3)n3nccc3n2)c(=O)[nH]1` [Example 358, 5-(7-(3,3,4,4-tetrafluoropyrrolidin-1-yl)pyrazolo[1,5-a]pyrimidin-5-yl)pyrimidine-2,4(1H,3H)-dione] as the compound, how does the IC50 [1] read?
**A.** Its IC50 is 27.8 nM.

**Q.** And the EC50 [2]?
**A.** The EC50 was 82.2 nM.

**Q.** With `O=c1[nH]cc(-c2cc(N3CC(F)(F)C4(CC4)C3)c3ncc(F)n3n2)c(=O)[nH]1` [Example 82, 5-(8-(7,7-difluoro-5-azaspiro[2.4]heptan-5-yl)-3-fluoroimidazo[1,2-b]pyridazin-6-yl)pyrimidine-2,4(1H,3H)-dione] as the compound, how does the IC50 [1] read?
**A.** The IC50 was 3.49 nM.

**Q.** And the EC50 [2]?
**A.** The EC50 was 16.4 nM.

**Q.** With `O=c1[nH]cc(-c2cc([C@H]3C[C@@H]3c3cc(F)c4cnn(CC(F)(F)F)c4c3)c3ncc(F)n3n2)c(=O)[nH]1` [Example 618, 5-(3-fluoro-8-((1S,2S)-2-(4-fluoro-1-(2,2,2-trifluoroethyl)-1H-indazol-6-yl)cyclopropyl)imidazo[1,2-b]pyridazin-6-yl)pyrimidine-2,4(1H,3H)-dione] as the compound, how does the IC50 [1] read?
**A.** The IC50 was 0.34 nM.

**Q.** And the EC50 [2]?
**A.** The EC50 was 0.13 nM.

**Q.** What does the source list for `O=C(CC1CN(c2cc(-c3c[nH]c(=O)[nH]c3=O)nn3ccnc23)CC1(F)F)NC12CC(F)(C1)C2` (stereo not shown) [Example 660, 2-(1-(6-(2,4-dioxo-1,2,3,4-tetrahydropyrimidin-5-yl)imidazo[1,2-b]pyridazin-8-yl)-4,4-difluoropyrrolidin-3-yl)-N-(3-fluorobicyclo[1.1.1]pentan-1-yl)acetamide]?
**A.** IC50 [1]: 6.05 nM; EC50 [2]: 33.6 nM

**Q.** Which results are given for `O=c1[nH]cc(-c2cc(NCC(F)F)c3nccn3n2)c(=O)[nH]1` [Example 670, 5-(8-((2,2-difluoroethyl)amino)imidazo[1,2-b]pyridazin-6-yl)pyrimidine-2,4(1H,3H)-dione]?
**A.** IC50 [1]: 154 nM; EC50 [2]: 573 nM

**Q.** For `COc1ccc(C2CN(c3cc(-c4c[nH]c(=O)[nH]c4=O)nn4ccnc34)C2)cc1` [Example 251, 5-(8-(3-(4-methoxyphenyl)azetidin-1-yl)imidazo[1,2-b]pyridazin-6-yl)pyrimidine-2,4(1H,3H)-dione], which IC50 [1] is on record?
**A.** The IC50 was 17.6 nM.

**Q.** What about the EC50 [2] of the same compound?
**A.** The EC50 was 125 nM.

**Q.** `O=C(Nc1ccc(F)cc1F)O[C@H]1CN(c2cc(-c3c[nH]c(=O)[nH]c3=O)nn3ccnc23)CC1(F)F` [Example 235, (S)-1-(6-(2,4-dioxo-1,2,3,4-tetrahydropyrimidin-5-yl)imidazo[1,2-b]pyridazin-8-yl)-4,4-difluoropyrrolidin-3-yl (2,4-difluorophenyl)carbamate] was tested. Which IC50 [1] did it give?
**A.** Its IC50 is 0.96 nM.

**Q.** And the EC50 [2]?
**A.** Its EC50 is 0.82 nM.

**Q.** `O=c1[nH]cc(-c2cc(N3CC4CCCC43)c3nccn3n2)c(=O)[nH]1` (stereo not shown) [Example 442, 5-(8-(6-azabicyclo[3.2.0]heptan-6-yl)imidazo[1,2-b]pyridazin-6-yl)pyrimidine-2,4(1H,3H)-dione] was tested. Which IC50 [1] did it give?
**A.** Its IC50 is 6.46 nM.

**Q.** What about the EC50 [2] of the same compound?
**A.** Its EC50 is 19.6 nM.

**Q.** Which IC50 [1] does the source give for `O=C1N(CC(F)(F)F)c2cc([C@H]3C[C@@H]3c3cc(-c4c[nH]c(=O)[nH]c4=O)nn4ccnc34)ccc2C12CC2` (racemic) [Example 382, 5-(8-((1S,2S)-2-(2′-oxo-1′-(2,2,2-trifluoroethyl)spiro[cyclopropane-1,3′-indolin]-6′-yl)cyclopropyl)imidazo[1,2-b]pyridazin-6-yl)pyrimidine-2,4(1H,3H)-dione] here?
**A.** The IC50 was 1.63 nM.

**Q.** What about the EC50 [2] of the same compound?
**A.** Its EC50 is 0.13 nM.
